From article PMC4286194 (Biochemical Journal, 2015) come the findings set out here.

The target of one test is MNK1 (Homo sapiens, UniProt Q9BUB5). The test can be described thus: Kinase profiling. Format: biochemical.
The target of the next test is T1, CHK1 (Homo sapiens, UniProt O14757).
T1 sequence (O14757 1-476): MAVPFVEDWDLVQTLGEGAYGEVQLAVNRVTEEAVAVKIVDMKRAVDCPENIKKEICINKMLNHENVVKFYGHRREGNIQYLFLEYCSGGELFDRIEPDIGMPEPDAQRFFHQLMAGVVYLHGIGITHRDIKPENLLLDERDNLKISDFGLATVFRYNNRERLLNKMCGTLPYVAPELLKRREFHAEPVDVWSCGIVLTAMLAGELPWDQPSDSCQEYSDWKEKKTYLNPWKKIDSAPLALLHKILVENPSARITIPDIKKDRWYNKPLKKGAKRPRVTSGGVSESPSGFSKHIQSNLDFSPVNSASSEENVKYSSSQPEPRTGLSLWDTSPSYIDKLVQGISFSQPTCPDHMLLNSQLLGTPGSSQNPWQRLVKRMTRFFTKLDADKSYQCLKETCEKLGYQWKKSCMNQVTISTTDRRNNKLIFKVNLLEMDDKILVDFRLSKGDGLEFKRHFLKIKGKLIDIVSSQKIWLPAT
The test can be described thus: Kinase profiling. Format: biochemical.

Test [1] has as its system Bone-marrow-derived macrophages. The test can be described thus: IL-10 mRNA (qPCR) in LPS-stimulated macrophages. It is filed as cell-based. The note with it: Mus musculus, Macrophage, read-out: EC50 for elevation of IL-10 mRNA. The method, then:
(§1) Primary macrophages were generated by differentiating bone marrow from 6- to 12-week-old C57BL/6 mice for 7 days in Dulbecco's modified Eagle's medium (DMEM) supplemented with 5 ng/ml recombinant M-CSF (R&D systems), 2 mM glutamine, 10% FBS, penicillin and streptomycin. Bone-marrow-derived macrophages were differentiated on non-tissue-culture-treated plastic, harvested and replated at a density of 100000 cells/cm^2 per 0.1 ml on tissue culture-treated plastic in fresh medium before stimulation on day 8. RAW264.7 cells were cultured in DMEM containing 10% FBS, 2 mM glutamine and penicillin and streptomycin. […] Cells were treated for 1 h with or without inhibitors and then stimulated for up to 24 h with either 1 μg/ml Pam3CSK4 or 100 ng/ml LPS.
(§2) mRNA was extracted from cells using the MicroElute Total RNA kit following the manufacturers’ instructions (Omega Bio-Tek). cDNA was generated from 0.5 μg of total RNA using the iScript cDNA synthesis kit and quantified by quantitative real-time PCR (qPCR) using the SsoFast EvaGreen Supermix on a CFX384 real-time system (Bio-Rad Laboratories). The relative expression of each gene was calculated from CT values using the Pfaffl method and was normalized against the mRNA levels of housekeeping genes including 18S RNA and GAPDH.
For orientation: Real-time PCR tracks product formation cycle by cycle.

In a further test the target is HIPK3 (Homo sapiens, UniProt Q9H422). The test can be described thus: Kinase profiling. Format: biochemical.
Sequence of HIPK3 (Q9H422 whole entry): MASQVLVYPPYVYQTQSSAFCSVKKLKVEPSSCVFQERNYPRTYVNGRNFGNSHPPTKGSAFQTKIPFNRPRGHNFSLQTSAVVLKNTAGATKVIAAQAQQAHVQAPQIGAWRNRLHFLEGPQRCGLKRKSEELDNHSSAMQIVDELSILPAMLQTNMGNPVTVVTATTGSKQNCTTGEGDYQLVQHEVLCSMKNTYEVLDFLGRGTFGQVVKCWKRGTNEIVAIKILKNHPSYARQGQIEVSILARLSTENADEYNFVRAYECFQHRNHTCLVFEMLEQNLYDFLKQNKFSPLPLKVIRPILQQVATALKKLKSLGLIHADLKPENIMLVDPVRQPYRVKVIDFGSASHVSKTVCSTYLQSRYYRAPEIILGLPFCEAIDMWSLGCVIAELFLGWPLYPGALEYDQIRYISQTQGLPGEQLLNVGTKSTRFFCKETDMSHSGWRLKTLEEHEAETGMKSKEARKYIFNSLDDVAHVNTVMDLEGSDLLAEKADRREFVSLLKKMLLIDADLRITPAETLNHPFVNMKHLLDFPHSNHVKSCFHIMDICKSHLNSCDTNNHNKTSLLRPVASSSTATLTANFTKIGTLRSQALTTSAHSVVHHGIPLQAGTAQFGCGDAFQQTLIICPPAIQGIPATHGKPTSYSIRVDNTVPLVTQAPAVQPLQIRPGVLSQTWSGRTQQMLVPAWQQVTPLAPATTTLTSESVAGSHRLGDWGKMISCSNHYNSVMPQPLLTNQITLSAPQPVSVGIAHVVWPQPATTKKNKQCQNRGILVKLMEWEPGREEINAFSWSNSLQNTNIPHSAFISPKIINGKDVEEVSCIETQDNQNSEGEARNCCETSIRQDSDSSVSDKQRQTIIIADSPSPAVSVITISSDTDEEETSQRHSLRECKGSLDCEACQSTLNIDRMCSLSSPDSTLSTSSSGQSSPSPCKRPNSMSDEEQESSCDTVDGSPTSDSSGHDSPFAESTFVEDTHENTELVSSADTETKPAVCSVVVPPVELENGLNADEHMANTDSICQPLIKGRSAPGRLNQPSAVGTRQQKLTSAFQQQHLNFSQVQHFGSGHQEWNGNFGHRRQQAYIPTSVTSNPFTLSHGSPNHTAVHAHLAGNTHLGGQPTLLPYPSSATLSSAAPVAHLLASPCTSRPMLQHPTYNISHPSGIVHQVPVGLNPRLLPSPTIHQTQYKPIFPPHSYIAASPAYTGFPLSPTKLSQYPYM
The target of a further test is T2, DDR2 (Homo sapiens, UniProt Q16832).
T2 sequence (Q16832 22-855): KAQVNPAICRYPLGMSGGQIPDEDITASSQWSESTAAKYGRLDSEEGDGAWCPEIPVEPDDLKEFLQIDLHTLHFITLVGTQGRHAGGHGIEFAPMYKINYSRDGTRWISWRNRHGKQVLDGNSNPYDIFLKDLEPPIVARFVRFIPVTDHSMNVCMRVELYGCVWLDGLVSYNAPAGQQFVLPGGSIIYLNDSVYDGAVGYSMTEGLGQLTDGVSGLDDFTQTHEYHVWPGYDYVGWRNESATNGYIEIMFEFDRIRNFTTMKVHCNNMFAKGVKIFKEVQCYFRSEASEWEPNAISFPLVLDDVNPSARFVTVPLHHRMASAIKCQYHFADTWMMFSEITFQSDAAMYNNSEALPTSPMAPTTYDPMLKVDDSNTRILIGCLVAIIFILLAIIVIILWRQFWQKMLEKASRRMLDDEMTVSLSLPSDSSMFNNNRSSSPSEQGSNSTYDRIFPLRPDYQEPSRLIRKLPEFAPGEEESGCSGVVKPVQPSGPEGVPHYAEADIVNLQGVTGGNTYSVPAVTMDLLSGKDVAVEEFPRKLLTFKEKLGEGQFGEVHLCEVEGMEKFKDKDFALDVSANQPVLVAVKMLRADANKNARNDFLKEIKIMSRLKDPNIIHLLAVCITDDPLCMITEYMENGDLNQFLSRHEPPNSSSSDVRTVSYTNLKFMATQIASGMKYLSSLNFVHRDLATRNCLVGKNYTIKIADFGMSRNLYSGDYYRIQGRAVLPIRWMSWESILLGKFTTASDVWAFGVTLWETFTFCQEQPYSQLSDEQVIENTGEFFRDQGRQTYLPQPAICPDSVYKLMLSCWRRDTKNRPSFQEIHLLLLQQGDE
In words: Kinase profiling. Format: biochemical.

The next test deals with T3, TSSK1 (Homo sapiens, UniProt Q9BXA7).
T3 sequence (Q9BXA7 1-367): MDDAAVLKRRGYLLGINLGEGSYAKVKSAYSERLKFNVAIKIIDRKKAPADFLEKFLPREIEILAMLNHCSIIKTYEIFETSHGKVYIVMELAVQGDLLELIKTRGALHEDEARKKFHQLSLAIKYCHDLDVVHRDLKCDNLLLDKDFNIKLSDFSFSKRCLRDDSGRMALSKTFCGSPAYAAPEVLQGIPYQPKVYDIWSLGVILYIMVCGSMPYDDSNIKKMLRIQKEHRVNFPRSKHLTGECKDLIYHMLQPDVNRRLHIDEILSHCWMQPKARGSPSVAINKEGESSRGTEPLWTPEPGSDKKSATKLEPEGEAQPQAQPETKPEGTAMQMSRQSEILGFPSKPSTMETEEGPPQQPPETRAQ
The test can be described thus: Kinase profiling. It is filed as biochemical.

In test [2] the test system is RAW264.7 macrophages expressing HA-SIK2-WT. The test can be described thus: IL-10 and Nurr77 mRNA in macrophages expressing wild-type SIK2. It is filed as cell-based. The note with it: cells expressing wild-type SIK2; drug 1 h, LPS 1 h. The method, then:
as §1, §2

Test [3] has as its system Bone-marrow-derived macrophages. The test can be described thus: Markers of 'regulatory' macrophages (qPCR). The following applies: 3 μM bosutinib or 0.3 μM dasatinib 1 h, then LPS. Format: cell-based, mouse. The method, then:
as §2, with “GAPDH. Results are reported relative to untreated control cells, which were set to 1.” for “GAPDH.”

The target in the next test is PAK5 (Homo sapiens, UniProt Q9P286). The test can be described thus: Kinase profiling. Format: biochemical.
Sequence of PAK5 (Q9P286 whole entry): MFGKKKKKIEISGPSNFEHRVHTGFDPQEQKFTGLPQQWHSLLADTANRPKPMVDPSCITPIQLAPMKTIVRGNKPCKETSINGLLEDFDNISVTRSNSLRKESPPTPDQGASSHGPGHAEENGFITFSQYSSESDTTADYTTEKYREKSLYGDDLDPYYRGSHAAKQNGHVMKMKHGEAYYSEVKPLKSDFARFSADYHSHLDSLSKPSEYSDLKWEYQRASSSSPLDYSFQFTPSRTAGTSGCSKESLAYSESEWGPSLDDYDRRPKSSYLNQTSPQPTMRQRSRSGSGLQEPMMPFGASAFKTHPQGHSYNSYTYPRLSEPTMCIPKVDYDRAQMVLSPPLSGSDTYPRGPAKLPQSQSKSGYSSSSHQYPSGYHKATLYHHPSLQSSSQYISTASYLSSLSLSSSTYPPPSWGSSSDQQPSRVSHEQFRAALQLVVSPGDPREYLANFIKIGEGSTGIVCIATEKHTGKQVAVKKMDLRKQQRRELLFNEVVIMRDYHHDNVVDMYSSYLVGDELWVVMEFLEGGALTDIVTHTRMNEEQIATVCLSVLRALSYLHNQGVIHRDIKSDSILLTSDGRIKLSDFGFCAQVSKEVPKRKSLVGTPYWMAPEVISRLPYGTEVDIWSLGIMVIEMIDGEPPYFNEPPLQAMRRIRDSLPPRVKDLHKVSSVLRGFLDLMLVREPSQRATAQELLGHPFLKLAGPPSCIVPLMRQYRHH

Read-outs that look alike come from different tables or passages of the source.

Sequence of MNK1 (Q9BUB5 whole entry): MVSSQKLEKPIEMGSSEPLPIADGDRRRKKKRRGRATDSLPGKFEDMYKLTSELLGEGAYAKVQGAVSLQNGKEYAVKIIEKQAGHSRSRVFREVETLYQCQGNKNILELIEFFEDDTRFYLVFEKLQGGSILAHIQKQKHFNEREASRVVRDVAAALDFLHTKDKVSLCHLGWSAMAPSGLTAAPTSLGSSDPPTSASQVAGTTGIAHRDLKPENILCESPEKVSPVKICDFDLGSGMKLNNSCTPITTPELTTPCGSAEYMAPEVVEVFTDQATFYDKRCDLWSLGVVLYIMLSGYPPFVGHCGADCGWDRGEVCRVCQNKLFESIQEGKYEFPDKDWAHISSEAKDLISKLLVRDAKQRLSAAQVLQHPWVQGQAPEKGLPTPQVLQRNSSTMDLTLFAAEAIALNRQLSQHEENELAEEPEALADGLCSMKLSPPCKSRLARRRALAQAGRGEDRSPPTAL

A word on the remaining activity: it is the signal under treatment as a percentage of the control signal. Broadly, the EC50 is the concentration giving half of the maximal effect. Turning to `COc1cc(Nc2c(C#N)cnc3cc(OCCCN4CCN(C)CC4)c(OC)cc23)c(Cl)cc1Cl` [Bosutinib, bosutinib], the remaining activity at 0.1 µM worked out at 99 ± 14% on MNK1; 91 ± 2% at CHK1; 22 ± 1% on DDR2; 67 ± 1% at TSSK1; 105 ± 18% at PAK5. Also, the remaining activity at 1 µM on MNK1 worked out at 105 ± 2%; at CHK1 it was 57%; at HIPK3 it was 66 ± 5%; at DDR2, 2%; at TSSK1, 22 ± 2%; on PAK5, 129 ± 5%. Moreover, the EC50 in test [1] (drug 1 h, then LPS 1 h, qPCR, n=4) was 320 nM. In test [2], the “LPS-stimulated CREB-dependent gene transcription including IL-10 and Nurr77” value is “strongly potentiate”. The “Expression of SPHK1, LIGHT and arginase 1” value in test [3] was “elevated”.

Turning to `Cc1nc(Nc2ncc(C(=O)Nc3c(C)cccc3Cl)s2)cc(N2CCN(CCO)CC2)n1` [Dasatinib], the remaining activity at 0.1 µM at MNK1 came to 108%; at CHK1, 100 ± 6%; at HIPK3 (0.1 µM) it was 102 ± 3%; at DDR2, 1 ± 1%; at TSSK1 it was 106 ± 11%; at PAK5, 131 ± 12%. In addition, the remaining activity at 1 µM stood at 102 ± 9% at MNK1; 96 ± 6% on CHK1; 113 ± 7% on HIPK3; 0% at DDR2; 113 ± 3% at TSSK1; 138 ± 7% on PAK5. In addition, the EC50 in test [1] (1 h) is 100 nM. Besides, the “LPS-stimulated CREB-dependent gene transcription including IL-10 and Nurr77” value in test [2] was “strongly potentiate”. Further, the “Expression of SPHK1, LIGHT and arginase 1” value in test [3] is “elevated”.
